Measurements published in patent US5708005A, “Quinolines, their production and use” (priority 1995, dated 1998).
pIC50: −log10 of the molar value.

Key:
melatonin receptor = assay: Action of inhibiting 2-[^125 I]iodomelatonin binding (forebrain membrane sample); set-up: species or system 7-days-old chicken (white leghorn); conditions: 80 pM 2-[^125 I]iodomelatonin, chicken forebrain membranes, 90 minutes at 25° C., pH 7.7; non-specific binding with 10 μM melatonin; log-probit analysis; read-out: IC50 (50% inhibiting concentration), inhibition of 2-[^125 I]iodomelatonin binding
Method: Action of inhibiting 2-[^125 I]iodomelatonin binding
The forebrains of 7-days-old chicken (white leghorn) were homogenized with ice-cold assay buffer (50 mM Tris-HCl, pH 7.7 at 25° C.) and centrifuged at 44,000×g for 10 minutes at 4° C. The pellet was washed once with the same buffer. For the assay, the frozen tissue pellet was thawed and homogenized with the assay buffer to make a protein concentration of 0.3-0.4 mg/ml. In this way, the membrane sample was prepared. The membrane sample was incubated with a test compound and a ligand (80 pM 2-[^125 I]iodomelatonin, about 100,000 dpm) in a total volume of 0.5 ml for 90 minutes at 25° C. The reaction was terminated by adding 3 ml of ice-cold assay buffer immediately followed by vacuum filtration on Whatman GF/B which was further washed twice with 3 ml of ice-cold assay buffer. The radioactivity on the filter was determined by means of γ-counter. […] The 50% inhibiting concentration (IC50) was determined by the log-probit analysis.

central nervous system = conditions: administered peripherally; Bioorganic & Medicinal Chemistry Letters, Vol. 4, p. 1485 (1994); cited from earlier work
metabolic enzymes = conditions: Rinsho Kensa, Vol. 38, No. 11 (1994); cited from earlier work

Compound | pIC50 (melatonin receptor) | activity on central nervous system (central nervous system) | metabolism by metabolic enzymes in a living body (metabolic enzymes)
COc1ccc2nc(Cl)cc(CCNC(C)=O)c2c1 [Working Example 1, N-[2-(2-chloro-6-methoxyquinolin-4-yl)ethyl]acetamide] | 8.08 |  | 
COc1ccc2nc(Cl)cc(CCNC(=O)C(F)(F)F)c2c1 [compound 3] | 8.05 |  | 
COc1ccc2[nH]cc(CCNC(C)=O)c2c1 [melatonin, N-acetyl-5-methoxytryptamine] |  | inactive | readily metabolized
